Data: US20040024055A1, “Pharmaceutical composition containing the exract of saururus chinensis baill useful as an anticancer agent and a process for the preparation thereof” (priority 2000, published 2004)
Converted amounts (≈) assume the structure as drawn.

Assays:
[1] = tested on: PC-3 prostate cancer cell line; assay: MTT analysis, anticancer activity; assay type: cell-based, human; settings: Homo sapiens, 48 hr
Procedure: To be specific, SK-Hep-1 cell, which is liver cancer cell line, was added to 96-well microplate (Falcon, USA) with the concentration of 3×10^5 cells/ml by 100 μl per well. Each extracted and separated substance dissolved in DMSO was added to the well by 100 μl for the final concentration to be from 50 μg/ml to 0.0244 μg/ml, with 200 μl of final volume. Each cell was cultured for 48 hr in a culture medium of 37° C. and 5% CO2. After cultivation, 20 μl of phosphate buffer solution containing 5 mg/ml of MTT (3-[4,5-dimethylthiazol-2-yl]-2,5-diphenyltetrazoliumbromide, Sigma Co.) reagent was added to each well, and then cultured for 4 hr. After taking 100 μl of supernant from each culture medium, 100 μl of 0.04N hydrochloric acid-isopropanol was added. After letting alone overnight, absorbance was measured at 560 nm using automatic Eliza detector (Molecular Divices Corp., USA). Anticancer activity of each extracted and separated substance was calculated from the absorbance value by Equation 1 and was expressed in terms of cell.
Average Existence Rate(%)=(Absorbance of Treated Group)/(Absorbance of Control Group)×100

[2] = tested on: Hep-2; assay: MTT analysis, anticancer activity; assay type: cell-based, human; settings: Homo sapiens, HEp-2; MTT, 48 hr; read-out: IC50 Hep-2
[3] = tested on: NIH-3T3; assay: Adhesion of cell to Gelatin; assay type: cell-based, mouse
Procedure: (§1) After treating HNP-98701 on tissue culture plate coated with the matrices, cancer cell was attached thereupon. To be specific, 50 μl/ml of […], 2 μg/ml of laminin, 2 μg/ml of collagen and 2 μg/ml of gelatin were coated on the surface of 96-well microplate (Corning Co.) per well. After solidifying for 2 hr, HNP-98701 was added to each well and treated for 1 hr. […] After treating the substances for 1 hr, cancer cell was added to each cell, and it was cultured for 3 hr. […] After culturing these cell lines for 3 hr, they were centrifuged. After collecting biomass only, it was washed with distilled water or PBS buffer solution for three times. […] Then, absorbance was measured at 560-405 nm with automatic Eliza detector (Molecular […] Corp., USA). […] Each experiment was performed for three times repeatedly.

[4] = tested on: MCF-7; assay: MTT analysis, anticancer activity; assay type: cell-based, human; settings: Homo sapiens, MCF7; MTT, 48 hr; read-out: IC50 MCF-7
[5] = tested on: T-47D; assay: MTT analysis, anticancer activity; assay type: cell-based, human; settings: Homo sapiens, T47D, 48 hr
[6] = tested on: SK-Hep-1; assay: Adhesion of cancer cell to Matri-Gel; assay type: cell-based, human
Procedure: as §1

[7] = tested on: BT-20; assay: MTT analysis, anticancer activity; assay type: cell-based, human; settings: Homo sapiens, BT-20, 48 hr
[8] = tested on: HT-29; assay: MTT analysis, anticancer activity; assay type: cell-based, human; settings: Homo sapiens, HT-29; MTT, 48 hr
[9] = tested on: NIH-3T3; assay: Adhesion of cell to Collagen; assay type: cell-based, mouse
Procedure: as §1

[10] = tested on: NIH-3T3; assay: Adhesion of cell to Matri-Gel; assay type: cell-based, mouse
Procedure: as §1

[11] = tested on: SK-MEL-28; assay: Adhesion of cancer cell to Collagen; assay type: cell-based, human
Procedure: as §1

[12] = tested on: SK-Hep-1; assay: Adhesion of cancer cell to Collagen; assay type: cell-based, human
Procedure: as §1

[13] = tested on: Hep-2; assay: Adhesion of cancer cell to Collagen; assay type: cell-based, human
Procedure: as §1

[14] = tested on: HS27; assay: MTT analysis, cytotoxicity against normal cell line; assay type: cell-based, human; settings: Homo sapiens, HS27; MTT, 48 hr
[15] = tested on: SK-MEL-28; assay: Adhesion of cancer cell to Gelatin; assay type: cell-based, human
Procedure: as §1

[16] = tested on: SK-Hep-1; assay: Adhesion of cancer cell to Gelatin; assay type: cell-based, human
Procedure: as §1

[17] = tested on: Hep-2; assay: Adhesion of cancer cell to Gelatin; assay type: cell-based, human
Procedure: as §1

[18] = tested on: KATO-III; assay: MTT analysis, anticancer activity; assay type: cell-based, human; settings: Homo sapiens, KATO III; MTT, 48 hr; read-out: IC50 KATO-III
[19] = tested on: SK-OV-3; assay: MTT analysis, anticancer activity; assay type: cell-based, human; settings: Homo sapiens, SK-OV-3; MTT, 48 hr
[20] = tested on: BT-549; assay: MTT analysis, anticancer activity; assay type: cell-based, human; settings: Homo sapiens, BT-549; MTT, 48 hr
[21] = tested on: HeLa; assay: MTT analysis, anticancer activity; assay type: cell-based, human; settings: Homo sapiens, HeLa, 48 hr
[22] = tested on: HT1080; assay: MTT analysis, anticancer activity; assay type: cell-based, human; settings: Homo sapiens, HT-1080, 48 hr
[23] = tested on: SK-MEL-28; assay: Adhesion of cancer cell to Laminin; assay type: cell-based, human
Procedure: as §1

[24] = tested on: SK-Hep-1; assay: Adhesion of cancer cell to Laminin; assay type: cell-based, human
Procedure: as §1

[25] = tested on: Hep-2; assay: Adhesion of cancer cell to Laminin; assay type: cell-based, human
Procedure: as §1

[26] = tested on: NIH-3T3; assay: MTT analysis, cytotoxicity against normal cell line; assay type: cell-based, mouse; settings: Mus musculus, NIH3T3; MTT, 48 hr
[27] = tested on: CPAE; assay: as above; assay type: cell-based, bovine; settings: Bos taurus; MTT, 48 hr
[28] = tested on: LoVo; assay: MTT analysis, anticancer activity; assay type: cell-based, human; settings: Homo sapiens, LoVo; MTT, 48 hr
[29] = tested on: NIH-3T3; assay: Adhesion of cell to Laminin; assay type: cell-based, mouse
Procedure: as §1

[30] = tested on: ME-180; assay: MTT analysis, anticancer activity; assay type: cell-based, human; settings: Homo sapiens, ME-180; MTT, 48 hr
[31] = tested on: HS-578T; assay: MTT analysis, anticancer activity; assay type: cell-based, human; settings: Homo sapiens, Hs-578T; MTT, 48 hr

## COc1cccc2c1C(=O)c1c(O)c3c(c(O)c1C2=O)C[C@@](O)(C(=O)CO)C[C@@H]3O[C@H]1C[C@H](N)[C@H](O)[C@H](C)O1 [Adriamycin, adriamycin (doxorubicin)]
[1]
  IC50: 0.575 µg/mL (≈ 1.06 µM)
[2]
  IC50: 0.087 µg/mL (≈ 0.16 µM)
[3]; 0.1 μg/ml
  Adhesion NIH-3T3 (%): 108.67%
[3]; 1 μg/ml
  Adhesion NIH-3T3 (%): 108.86%
[3]; 10 μg/ml
  Adhesion NIH-3T3 (%): 105.81%
[4]
  IC50: 0.134 µg/mL (≈ 0.247 µM)
[5]
  IC50: 0.255 µg/mL (≈ 0.469 µM)
[6]; 0.1 μg/ml
  Adhesion SK-Hep-1 (%): 99.04%
[6]; 1 μg/ml
  Adhesion SK-Hep-1 (%): 95.93%
[6]; 10 μg/ml
  Adhesion SK-Hep-1 (%): 88.74%
[7]
  IC50: 0.131 µg/mL (≈ 0.241 µM)
[8]
  IC50: 0.413 µg/mL (≈ 0.759 µM)
[9]; 0.1 μg/ml
  Adhesion NIH-3T3 (%): 111.98%
[9]; 1 μg/ml
  Adhesion NIH-3T3 (%): 109.97%
[9]; 10 μg/ml
  Adhesion NIH-3T3 (%): 111.13%
[10]; 0.1 μg/ml
  Adhesion NIH-3T3 (%): 115.00%
[10]; 1 μg/ml
  Adhesion NIH-3T3 (%): 108.65%
[10]; 10 μg/ml
  Adhesion NIH-3T3 (%): 104.23%
[11]; 0.1 μg/ml
  Adhesion SK-MEL-28 (%): 94.27%
[11]; 1 μg/ml
  Adhesion SK-MEL-28 (%): 94.49%
[11]; 10 μg/ml
  Adhesion SK-MEL-28 (%): 94.71%
[12]; 0.1 μg/ml
  Adhesion SK-Hep-1 (%): 98.83%
[12]; 1 μg/ml
  Adhesion SK-Hep-1 (%): 97.89%
[12]; 10 μg/ml
  Adhesion SK-Hep-1 (%): 103.28%
[13]; 0.1 μg/ml
  Adhesion Hep-2 (%): 91.10%
[13]; 1 μg/ml
  Adhesion Hep-2 (%): 93.11%
[13]; 10 μg/ml
  Adhesion Hep-2 (%): 88.85%
[14]
  IC50: 0.218 µg/mL (≈ 0.401 µM)
[15]; 0.1 μg/ml
  Adhesion SK-MEL-28 (%): 96.39%
[15]; 1 μg/ml
  Adhesion SK-MEL-28 (%): 97.42%
[15]; 10 μg/ml
  Adhesion SK-MEL-28 (%): 97.21%
[16]; 0.1 μg/ml
  Adhesion SK-Hep-1 (%): 85.77%
[16]; 1 μg/ml
  Adhesion SK-Hep-1 (%): 76.37%
[16]; 10 μg/ml
  Adhesion SK-Hep-1 (%): 33.29%
[17]; 0.1 μg/ml
  Adhesion Hep-2 (%): 104.27%
[17]; 1 μg/ml
  Adhesion Hep-2 (%): 98.27%
[17]; 10 μg/ml
  Adhesion Hep-2 (%): 97.73%
[18]
  IC50: 0.342 µg/mL (≈ 0.628 µM)
[19]
  IC50: > 50 µg/mL
[20]
  IC50: 0.438 µg/mL (≈ 0.806 µM)
[21]
  IC50: 0.703 µg/mL (≈ 1.29 µM)
[22]
  IC50: 0.719 µg/mL (≈ 1.32 µM)
[23]; 0.1 μg/ml
  Adhesion SK-MEL-28 (%): 108.40%
[23]; 1 μg/ml
  Adhesion SK-MEL-28 (%): 109.66%
[23]; 10 μg/ml
  Adhesion SK-MEL-28 (%): 113.03%
[24]; 0.1 μg/ml
  Adhesion SK-Hep-1 (%): 96.18%
[24]; 1 μg/ml
  Adhesion SK-Hep-1 (%): 96.92%
[24]; 10 μg/ml
  Adhesion SK-Hep-1 (%): 95.86%
[25]; 0.1 μg/ml
  Adhesion Hep-2 (%): 106.76%
[25]; 1 μg/ml
  Adhesion Hep-2 (%): 105.13%
[25]; 10 μg/ml
  Adhesion Hep-2 (%): 98.75%
[26]
  IC50: 0.496 µg/mL (≈ 0.913 µM)
[27]
  IC50: 0.0208 µg/mL (≈ 0.0383 µM)
[28]
  IC50: 0.0538 µg/mL (≈ 0.099 µM)
[29]; 0.1 μg/ml
  Adhesion NIH-3T3 (%): 107.38%
[29]; 1 μg/ml
  Adhesion NIH-3T3 (%): 103.07%
[29]; 10 μg/ml
  Adhesion NIH-3T3 (%): 91.63%
[30]
  IC50: 0.108 µg/mL (≈ 0.198 µM)
[31]
  IC50: 0.469 µg/mL (≈ 0.862 µM)
